Active and inactive are the calls of the source.
How the values were obtained:
[1] = molecular target: Luciferin 4-monooxygenase (Photinus pyralis, UniProt P08659); assay: inhibition of purified Photinus pyralis luciferase – biochemical, luminescence, dose response (AID 1891)
[2] = Luminescence Cell-Based Dose Confirmation HTS to Identify Inhibitors of Platelet Dense Granule Release. [Related pubchem assays: 1663 (Primary HTS), 1678 (Summary of Project)]; type: functional
Galanin receptor type 3 = molecular target: T1, Galanin receptor type 3 (Homo sapiens, UniProt O60755); assay: Fluorescence-based cell-based primary high throughput dose response assay to identify antagonists of the Galanin Receptor 3 (GalR3).; type: functional
T1 sequence (O60755 whole entry): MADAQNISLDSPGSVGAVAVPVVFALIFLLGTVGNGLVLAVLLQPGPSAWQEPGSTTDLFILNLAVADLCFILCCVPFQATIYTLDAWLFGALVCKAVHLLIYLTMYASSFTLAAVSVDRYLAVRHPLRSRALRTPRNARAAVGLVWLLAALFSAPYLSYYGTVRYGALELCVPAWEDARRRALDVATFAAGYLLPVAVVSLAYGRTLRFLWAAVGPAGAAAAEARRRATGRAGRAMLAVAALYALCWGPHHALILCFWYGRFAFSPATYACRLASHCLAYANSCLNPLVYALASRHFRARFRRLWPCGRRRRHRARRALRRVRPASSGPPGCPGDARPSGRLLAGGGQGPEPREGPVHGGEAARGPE

cells [3] = type: functional, cell-based; details: HEK-CNG
[4] = fluconazole-exposed Candida albicans growth modulators – fluorescence, retest, confirmation (AID 2467); type: functional, cell-based
cells [5] = type: functional
[6] = toxicity toward HepG2 liver cells – cell-based, plate reader, cherry-pick, antagonist series, cytotoxicity control, dose response (AID 743416); type: functional
Protein RecA = molecular target: T2, Protein RecA (Mycobacterium tuberculosis, UniProt P9WHJ3); assay: Fluorescence Cell-Free Homogeneous Dose Retest to Identify Inhibitors of RecA-Intein Splicing Activity. [Related pubchem assays (depositor defined):AID2097, AID2223, AID489010, AID492950]; type: functional
T2 sequence (P9WHJ3 whole entry): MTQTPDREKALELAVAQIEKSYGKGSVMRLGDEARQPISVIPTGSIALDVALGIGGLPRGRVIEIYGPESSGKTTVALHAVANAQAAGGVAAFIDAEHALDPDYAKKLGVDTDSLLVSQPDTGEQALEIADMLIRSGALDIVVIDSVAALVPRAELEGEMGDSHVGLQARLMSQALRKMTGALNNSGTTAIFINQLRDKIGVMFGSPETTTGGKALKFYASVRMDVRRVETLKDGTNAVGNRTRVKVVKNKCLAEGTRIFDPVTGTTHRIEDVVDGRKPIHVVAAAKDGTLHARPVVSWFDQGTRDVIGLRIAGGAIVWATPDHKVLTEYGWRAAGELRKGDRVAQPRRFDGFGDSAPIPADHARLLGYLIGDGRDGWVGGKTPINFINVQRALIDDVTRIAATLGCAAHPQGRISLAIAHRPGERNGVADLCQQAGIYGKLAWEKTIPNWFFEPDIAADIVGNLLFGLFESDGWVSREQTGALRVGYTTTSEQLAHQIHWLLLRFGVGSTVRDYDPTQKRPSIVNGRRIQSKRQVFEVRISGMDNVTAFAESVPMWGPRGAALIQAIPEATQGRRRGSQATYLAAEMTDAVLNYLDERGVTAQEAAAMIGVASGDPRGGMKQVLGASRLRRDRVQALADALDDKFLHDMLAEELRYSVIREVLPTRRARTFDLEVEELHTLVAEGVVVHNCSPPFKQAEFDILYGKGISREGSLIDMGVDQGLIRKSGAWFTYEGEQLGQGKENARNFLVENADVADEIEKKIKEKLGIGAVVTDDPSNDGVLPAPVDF

[7] = molecular target: T3, Heat shock factor protein 1 (Mus musculus, UniProt P38532); assay: enhancement of HSF1-driven luciferase signal – cell-based, NIH3T3, luminescence, dose retest, confirmation (AID 435004); type: functional;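 also: stress induced by proteasome inhibitor MG132 added 30 min after compound; luciferase reporter driven by HSF1 response element in NIH3T3 cells; actives raise luminescence as potentiators of the MG132 stress response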
T3 sequence (P38532 whole entry): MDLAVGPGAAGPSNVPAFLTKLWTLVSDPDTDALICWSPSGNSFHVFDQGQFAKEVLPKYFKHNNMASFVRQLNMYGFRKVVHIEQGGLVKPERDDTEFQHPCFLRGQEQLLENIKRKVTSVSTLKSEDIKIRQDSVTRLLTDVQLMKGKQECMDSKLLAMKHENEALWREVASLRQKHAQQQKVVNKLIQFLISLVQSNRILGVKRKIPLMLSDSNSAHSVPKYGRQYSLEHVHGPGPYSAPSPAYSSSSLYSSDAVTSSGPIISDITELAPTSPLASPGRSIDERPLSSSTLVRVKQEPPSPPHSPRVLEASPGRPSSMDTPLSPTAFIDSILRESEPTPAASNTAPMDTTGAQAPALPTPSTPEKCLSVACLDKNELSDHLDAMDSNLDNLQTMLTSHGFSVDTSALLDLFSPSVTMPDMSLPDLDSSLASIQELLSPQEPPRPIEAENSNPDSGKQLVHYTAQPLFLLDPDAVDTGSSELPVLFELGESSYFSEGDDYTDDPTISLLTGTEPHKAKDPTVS

[8] = NIH-3T3 fibroblast cytotoxicity, dose response, cytotoxicity control, cell-based, fluorescence, Alamar Blue, secondary assay (AID 2327); type: functional;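 also: NIH-3T3 mouse fibroblasts cultured with fluconazole at 8 µg/mL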
[9] = NIH3T3 cell viability loss – ATP luminescence, mouse fibroblasts, counter-screen, dose response (AID 2010); type: functional, cell-based;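 also: cells exposed to compound for about 90 hours before reading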
[10] = Trypanosoma cruzi growth suppression in host cells – NIH3T3 host cells, beta-gal luminescence, confirmation (AID 2044); type: functional, cell-based;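 also: intracellular parasites grown in NIH/3T3 mouse fibroblasts as host cells; luminescent beta-galactosidase reporter signal from transgenic T. cruzi replicating inside host cells; inhibitors lower the luminescence signal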
[11] = THP-1 cell cytotoxicity, dose response, cytotoxicity control for non-replicating M. tuberculosis project (AID 489025); type: functional
[12] = viability loss in HEK293 cells – cell-based, plate reader, cherry-picked samples, cytotoxicity control, dose response (AID 743446); type: functional
[13] = molecular target: T4, Replicative DNA helicase DnaB (Mycobacterium tuberculosis, UniProt P9WMR3); assay: DnaB intein splicing inhibitors, dose response, biochemical, cell-free fluorescence (AID 449749); type: functional
T4 sequence (P9WMR3 whole entry): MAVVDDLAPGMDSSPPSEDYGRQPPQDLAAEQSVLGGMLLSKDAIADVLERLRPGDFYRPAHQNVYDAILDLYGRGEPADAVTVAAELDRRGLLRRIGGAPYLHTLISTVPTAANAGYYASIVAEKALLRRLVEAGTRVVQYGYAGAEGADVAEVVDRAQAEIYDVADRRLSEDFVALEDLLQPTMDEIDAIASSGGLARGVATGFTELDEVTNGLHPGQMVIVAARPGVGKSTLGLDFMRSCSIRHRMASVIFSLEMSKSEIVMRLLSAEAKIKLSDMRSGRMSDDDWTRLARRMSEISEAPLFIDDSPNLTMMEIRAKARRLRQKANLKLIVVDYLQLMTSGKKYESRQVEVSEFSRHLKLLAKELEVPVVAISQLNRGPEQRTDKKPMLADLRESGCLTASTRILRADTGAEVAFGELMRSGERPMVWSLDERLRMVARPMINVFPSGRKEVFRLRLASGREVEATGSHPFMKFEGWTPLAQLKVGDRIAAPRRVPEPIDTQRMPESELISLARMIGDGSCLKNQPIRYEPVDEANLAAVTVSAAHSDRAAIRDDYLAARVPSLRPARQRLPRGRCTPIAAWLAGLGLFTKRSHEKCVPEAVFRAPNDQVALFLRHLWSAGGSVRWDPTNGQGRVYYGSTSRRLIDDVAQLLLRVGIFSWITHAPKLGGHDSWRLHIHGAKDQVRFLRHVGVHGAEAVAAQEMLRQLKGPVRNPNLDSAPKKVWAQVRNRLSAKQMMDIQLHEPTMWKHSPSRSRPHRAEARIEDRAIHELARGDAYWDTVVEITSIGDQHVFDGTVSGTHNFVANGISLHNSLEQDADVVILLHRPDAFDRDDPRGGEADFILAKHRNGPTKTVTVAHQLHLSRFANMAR

[14] = A549 cell cytotoxicity, dose response, cytotoxicity control, plate reader, cherry-pick, antagonist series (AID 743412); type: functional, cell-based
[15] = blockers of bursicon-stimulated LGR2 cAMP reporter – cell-based, HEK293, CRE-luciferase reporter, cherry pick, set 2, dose response (AID 743343); type: functional;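 also: transfected cells were stimulated with diluted bursicon conditioned medium after compound addition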
HEK293 = assay: EBV LMP1 TES2 canonical NF-kB signalling blockers – cell-based, HEK293, luciferase, cherry-pick, dose response (AID 588343); type: functional; details: Homo sapiens
Paired box protein Pax-8 = Paired box protein Pax-8 (Homo sapiens, UniProt Q06710); assay: PAX8 transcriptional activity inhibition in RMG-I – RMG-I cells, luciferase, cherry-pick, dose response (AID 687027); type: functional, cell-based;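 also: luciferase reporter driven by Pax8 target thyroperoxidase promoter measured by SteadyGlo luminescence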
[16] = blockade of melanocortin 4 receptor signaling – cell-based, plate reader, cherry pick, counter-screen for LGR2 antagonist project, dose response (AID 743444); type: functional;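 also: transfected HEK 293 cells stimulated with alpha-MSH peptide; potency of inhibitors of the alpha-MSH evoked signal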
Major prion protein = Major prion protein (Homo sapiens, UniProt P04156); type: functional, cell-based
[17] = reduced cellular PGC1a acetyl-lysine signal – cell-based, cherry-picked samples, dose response (AID 720514); type: functional;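 also: potency may reflect raised or lowered acetylation signal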
[18] = Luminescence-based cell-based high throughput dose response assay to identify activators of the DAF-12 from the parasite S. stercoralis (ssDAF-12).; type: functional
[19] = molecular target: T5, Oxysterols receptor LXR-beta (Homo sapiens, UniProt P55055); type: functional, cell-based;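 also: Cell-based luminescence dose-response assay of agonist activity at LXR, run as a confirmatory counterscreen to a daf-12 agonist screen; HEK293 cells with Gal4-LXR fusion and GAL4-driven luciferase reporter; agonist potency from rising luciferase signal of a Gal4-LXR reporter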
T5 sequence (P55055 whole entry): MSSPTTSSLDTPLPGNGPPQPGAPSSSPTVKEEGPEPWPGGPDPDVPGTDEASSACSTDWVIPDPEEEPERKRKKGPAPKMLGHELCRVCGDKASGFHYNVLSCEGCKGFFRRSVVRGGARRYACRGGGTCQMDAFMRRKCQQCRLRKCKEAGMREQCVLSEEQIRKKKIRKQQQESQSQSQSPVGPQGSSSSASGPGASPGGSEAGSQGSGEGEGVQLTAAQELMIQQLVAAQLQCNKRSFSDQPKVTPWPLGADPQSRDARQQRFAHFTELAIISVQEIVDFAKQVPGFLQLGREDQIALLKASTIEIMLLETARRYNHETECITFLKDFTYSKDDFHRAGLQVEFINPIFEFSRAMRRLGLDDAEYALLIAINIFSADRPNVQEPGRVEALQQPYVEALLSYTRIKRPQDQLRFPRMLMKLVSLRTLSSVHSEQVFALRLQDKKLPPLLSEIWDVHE

cells [20] = assay: cells
[21] = rise of 4N DNA cells, HeLa – IC50, dose response (AID 1117351); type: functional, cell-based
[22] = rise of 2N DNA cells, HeLa – IC50, dose response (AID 1117349); type: functional, cell-based

Chain of Luciferin 4-monooxygenase (P08659 whole entry): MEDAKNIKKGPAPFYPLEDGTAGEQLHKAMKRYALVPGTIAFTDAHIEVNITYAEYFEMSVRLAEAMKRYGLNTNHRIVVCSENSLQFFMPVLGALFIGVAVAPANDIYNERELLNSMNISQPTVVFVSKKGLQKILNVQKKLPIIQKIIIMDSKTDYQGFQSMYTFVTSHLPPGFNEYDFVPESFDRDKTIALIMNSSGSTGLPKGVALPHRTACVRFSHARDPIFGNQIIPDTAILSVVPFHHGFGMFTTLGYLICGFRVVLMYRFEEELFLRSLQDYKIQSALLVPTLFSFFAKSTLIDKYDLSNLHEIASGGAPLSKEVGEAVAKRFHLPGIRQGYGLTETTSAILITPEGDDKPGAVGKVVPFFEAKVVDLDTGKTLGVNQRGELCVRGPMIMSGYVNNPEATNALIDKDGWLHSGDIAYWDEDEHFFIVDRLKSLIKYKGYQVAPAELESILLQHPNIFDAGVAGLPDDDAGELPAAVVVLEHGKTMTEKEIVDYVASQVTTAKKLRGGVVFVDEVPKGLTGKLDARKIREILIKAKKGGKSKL
Chain of Paired box protein Pax-8 (Q06710 whole entry): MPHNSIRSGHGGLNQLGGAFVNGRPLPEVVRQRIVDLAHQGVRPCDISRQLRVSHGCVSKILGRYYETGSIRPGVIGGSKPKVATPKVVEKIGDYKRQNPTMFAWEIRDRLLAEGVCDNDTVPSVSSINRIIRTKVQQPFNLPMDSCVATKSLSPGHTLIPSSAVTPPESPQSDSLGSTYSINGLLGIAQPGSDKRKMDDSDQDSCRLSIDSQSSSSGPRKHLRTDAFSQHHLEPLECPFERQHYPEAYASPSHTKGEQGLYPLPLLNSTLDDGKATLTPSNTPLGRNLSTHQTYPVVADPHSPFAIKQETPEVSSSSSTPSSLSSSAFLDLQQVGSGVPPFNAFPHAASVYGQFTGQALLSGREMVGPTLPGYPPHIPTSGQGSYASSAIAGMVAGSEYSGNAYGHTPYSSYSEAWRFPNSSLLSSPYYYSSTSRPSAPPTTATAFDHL

COc1ccc(C2CC(=O)Nc3sc(=N)c4c(N)c(C#N)c(N)nc4c32)cc1OC (stereo not drawn)
EC50 [1]: > 112 µM (not active)
EC50 [2]: 0.706 µM (active)
IC50 (Galanin receptor type 3): 2.28 µM (active)
EC50 (cells [3]): > 29.9 µM (inactive)

Cc1noc2ncnc(Sc3ccc(Br)cc3)c12
EC50 [4]: > 38 µM (not active)
IC50 (cells [5]): 11.6 µM (active)
AC50 [6]: 25.4 µM (active)
EC50 (Protein RecA): 16.2 µM (active)
EC50 [7]: 6.64 µM (active)
EC50 [8]: 7.6 µM (inconclusive)
EC50 [9]: > 60 µM (inconclusive)
EC50 [10]: 1.96 µM (active)
CC50 [11]: > 40 µM (active)
AC50 [12]: > 52 µM (inactive)
AC50 [13]: 4.02 µM (active)

COc1ccc(-c2csc3ncnc(Sc4nnnn4C)c23)cc1
AC50 [14]: 26.8 µM (active)
AC50 [15]: 17.8 µM (active)
AC50 (HEK293): 8.04 µM (active)
AC50 (Paired box protein Pax-8): 4.92 µM (active)
AC50 [16]: 20.8 µM (active)
AC50 [12]: 19.8 µM (active)

CC(Sc1ccc2ccccc2n1)C(=O)O (stereo not drawn)
IC50 (Major prion protein): 1.88 µM (active)

Cc1cc2c(c(/C=C/C(=O)c3ccccc3)c1)OC1(C=C2)Oc2ccccc2C(=O)N1C (stereo not drawn)
AC50 [17]: 2.26 µM (active)
EC50 [7]: 3.56 µM (active)

O=C(NCCO)c1nsnc1NCCCl
IC50 (Galanin receptor type 3): > 29.9 µM (inactive)
EC50 (cells [3]): > 29.9 µM (inactive)

O=C(COc1ccc2ccccc2c1)Nc1ccncc1
IC50 (cells [5]): 6.95 µM (active)
IC50 (Galanin receptor type 3): 1.77 µM (active)
EC50 (cells [3]): > 29.9 µM (inactive)

COc1ccc(-c2cc3nc(NCc4ccc(N(C)C)cc4)n(C)c(=O)c3s2)cc1OC
AC50 [6]: 45.2 µM (active)
AC50 [14]: 36 µM (active)
AC50 [15]: 31.3 µM (active)
AC50 [16]: 39 µM (active)
AC50 [12]: 3.28 µM (active)

C[C@@H]1CN([C@H](C)CO)C(=O)CCCn2nncc2CO[C@H]1CN(C)C(=O)Nc1cccc2ccccc12
AC50 [6]: > 52 µM (inactive)
AC50 [16]: 34.8 µM (active)

Nc1ccccc1-n1nc2ccc3ccccc3c2n1
IC50 [18]: > 67.5 µM (inactive)
EC50 [19]: > 67.5 µM (inactive)
EC50 (cells [20]): > 67.5 µM (inactive)

O=C(Cc1ccccn1)NCC[C@H]1CC[C@@H](NC(=O)Nc2ccc(C(F)(F)F)cc2)[C@@H](CO)O1
AC50 [17]: 34.6 µM (active)

C[C@@H]1CN([C@@H](C)CO)S(=O)(=O)c2ccc(-c3ccc(C#N)cc3)cc2O[C@H]1CN(C)C(=O)CN(C)C
AC50 [17]: 26.5 µM (active)

[O-][n+]1ccccc1SSc1cccc[n+]1[O-] [DIPYRITHIONE]
IC50 [21]: > 10 µM (inactive)
IC50 [22]: > 10 µM (inactive)

— ChEMBL document CHEMBL1201862, “PubChem BioAssay data set” (2004)
